Assay results published in article PMC4585835 (Scientific Reports, 2015).
Like-named read-outs stand apart in the source and are kept apart here. Where a SMILES comes first, the peptide text is derived from it. Where no end group is shown, it is not given here. [ ]: non-standard residue; d: D form. The star is where a group is joined. Stearoyl = CCCCCCCCCCCCCCCCCC(=O)*

What was measured:
trypsin = molecular target: T1, trypsin (Bos taurus, UniProt P00760); test: Degradation mediated by trypsin (HPLC); type: in vitro ADME; details: trypsin (119 ng/μL) in Tris-HCl buffer, pH 8.5, 119 μg/ml trypsin, peptide 0.79 mM, 37 °C, read-out: peptide intact after incubation with trypsin
T1 construct: purchased Roche Corp (Indianapolis, USA)
T1 sequence (P00760 24-246): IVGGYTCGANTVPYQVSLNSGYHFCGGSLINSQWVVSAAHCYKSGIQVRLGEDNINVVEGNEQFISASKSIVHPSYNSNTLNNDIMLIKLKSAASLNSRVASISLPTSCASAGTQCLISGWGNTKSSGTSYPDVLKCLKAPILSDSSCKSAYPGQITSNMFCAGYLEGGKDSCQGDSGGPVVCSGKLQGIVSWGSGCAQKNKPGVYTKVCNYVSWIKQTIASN
From the text: The degradation of peptides mediated by trypsin can be effectively monitored by HPLC analysis. […] The detector wavelength was set at 214 nm.

human thrombin [1] = molecular target: T2, human thrombin (Homo sapiens, UniProt P00734); test: Degradation mediated by human thrombin (HPLC); type: in vitro ADME; details: human thrombin (69 NIH/mL) in Tris-HCl buffer, pH 8, 69 NIH/ml human thrombin, peptide 0.41 mM, 37 °C, read-out: peptide remained after reaction with human thrombin
T2 construct: purchased National Institute for the Control of Pharmaceutical and Biological Products (Beijing, China)
Method: The catalytic cleavage of peptides mediated by thrombin was also examined using the same method. Specifically, a peptide solution (0.41 mM) was first incubated with thrombin (69 NIH/mL) in Tris-HCl buffer (70 mM Tris HCl, NaCl 50 mM, pH = 8.0) at 37 °C.

[2] = Pharmacokinetics in rats, i.v.; type: in vivo; details: rat, 1 μmol/kg i.v., n = 5; for AUC(0-t): read-out: AUC(0-t) (converted); for MRT last: read-out: MRT0-t (converted); for Vd: read-out: Vss
Method: SD Rats were randomly divided into three groups (n = 5). […] All blood samples were immediately centrifuged at 5000 rpm for 5 min at room temperature, and the plasma obtained was stored at −20 °C before analysis. To the rat plasma (100 μL) was added 10 μL internal standard (80 ~ 100 ng/ml Carbamazepine), followed by mixing with 200 μL methanol with vortexing for 1 min. At this stage, certain amounts of proteins may precipitate out, thus this mixture was centrifuged at 12,000 rpm for 5 min at room temperature to achieve complete separation. The 20 μl supernatant was injected into a HPLC (Symbiosis, Spark, Holland; column: 50 mm × 2.1 mm, 5 μm, Agilent Eclipse Plus) –MS/MS system (ABI 4000 Q-Trap triple quadrupole mass spectrometer) equipped with electrospray ionization (ESI) source in the positive ion mode (Foster City, USA). The HPLC elution gradient was as follows: 0–0.5 min, 5–5% (B); 0.5–3 min, 5–95% (B); 3–4 min, 95–95% (B); 4–4.06 min, 95–5% (B); 4.06–6 min, 5–5% (B); the flow-rate was 0.4 ml/min; A was 0.1% formic acid/Waterl, B was 0.1% formic acid/methanol. The MS parameters were: CUR10Psi; Ion Spray Voltage (IS) 5500v; Collision activated dissociation (CAD) High, Gas1 = 50 psi, Gas2 = 50 psi, TEM = 500 °C.
All three peptides remained stable in plasma during three freeze/thaw cycles, at room temperature for at least 2 h. The supernatant of plasma samples were also found to be stable for at least 24 h at 10 °C in the autosampler.
The statistical significance of the difference among pharmacokinetic parameters was determined using the mean comparison Student’s t-test, and the resulting P values were lower than 0.05, which is considered to be statistically significant.

rat thrombin = molecular target: T3, rat thrombin (Rattus norvegicus, UniProt P18292); test: Inhibition of rat thrombin-catalyzed hydrolysis of Chromozym TH; type: biochemical; details: 25 °C, pH 7.4
T3 construct: purchased Sigma

[3] = Bleeding time test (BT) in rats; type: in vivo, rat; details: 30 min after administration
Method: Bleeding time was determined as reported previously. Male SD rats (180–220 g) were divided into 6 groups (n = 8). […] Thirty minutes after the injection, bleeding was induced by tail transection of the anesthetized rat with a size 21 disposable scalpel blade 2 mm from the tail tip. The bleeding tail was wiped with filter paper every 30 s, and the bleeding time was recorded when no blood was observed on the filter paper.

human thrombin [4] = molecular target: T2, human thrombin; test: Inhibition of human thrombin-catalyzed hydrolysis of Chromozym TH; type: biochemical; details: 25 °C, pH 7.4
Method: The inhibition constant (Ki) was determined as reported previously. A 0.05 mL of peptide solution (concentration 10, 25, 50, 100, 150, 500 and 1000 nM, respectively) was added to 0.4 mL mixture of Hepes buffer (10 mM Hepes, 10 mM Tris, 0.1 M NaCl, 0.1% PEG 6000, pH 7.4) and bovine or human thrombin (0.25 NIH). The resulting solution was incubated at 25 °C for 2 min, followed by the addition of 0.05 mL Chromozym TH (concentration 25, 33, 40, 50, 100, 125, 200, 330, 500, and […], respectively). The absorbance at 405 nm was measured using a Beckman DU640 spectrometer. The inhibition constant (Ki) was determined using the following equation (Eq.1) originally developed for competitive inhibition processes[25]:
Herein, S is the initial substrate concentration; I is the inhibitor concentration; v is the initial steady-state velocity; Vmax is the limiting maximal velocity; and Km is the dissociation constant of the complex.

human thrombin [5] = test: thrombin (69 NIH/mL) in Tris-HCl buffer (70 mM Tris HCl, NaCl 50 mM, pH = 8.0); details: 37 °C, up to 5 h
[6] = system: Trypsin (modified sequencing grade); test: trypsin (119 ng/μL) in the Tris-HCl buffer (90 mM, pH = 8.5); details: 37 °C, up to 5 h

In the case of CC[C@H](C)[C@H](NC(=O)[C@H](CCC(=O)O)NC(=O)[C@H](CCC(=O)O)NC(=O)[C@H](Cc1ccccc1)NC(=O)[C@H](CC(=O)O)NC(=O)CNC(=O)[C@H](CC(N)=O)NC(=O)CNC(=O)CNC(=O)CNC(=O)CNC(=O)[C@@H]1CCCN1C(=O)[C@H](CCCNC(=N)N)NC(=O)[C@@H]1CCCN1C(=O)[C@H](N)Cc1ccccc1)C(=O)N1CCC[C@H]1C(=O)N[C@@H](CCC(=O)O)C(=O)N[C@@H](CCC(=O)O)C(=O)N[C@@H](Cc1ccc(O)cc1)C(=O)N[C@@H](CC(C)C)C(=O)O [Hirulog-1, reference compound], the remaining at 3 h, 0.79 mM (trypsin) is reported as 10%, the remaining at 5 h, 0.79 mM (trypsin) is reported as 6% and the remaining at 3 h, 0.41 mM (human thrombin [1]) is reported as 57%. For the same compound, the remaining at 5 h, 0.41 mM (human thrombin [1]) was 23%, the AUC(0-inf) ([2]; SD, plasma, iv, 1 umol/kg) was 0.415 µM·h and the Cmax ([2]; SD, plasma, iv, 1 umol/kg) was 3100 ± 1100 nM. For the same compound, the clearance ([2]; SD, plasma, iv, 1 umol/kg) was 42.6 ± 5.2 mL/min/kg, the AUC(0-t) ([2]; SD, plasma, iv, 1 umol/kg) was 0.395 µM·h and the MRT last ([2]; SD, plasma, iv, 1 umol/kg) was 12.1 min. For the same compound, the Vd ([2]; SD, plasma, iv, 1 umol/kg) was 0.522 ± 0.151 L/kg, the Ki (rat thrombin) was 20.5 ± 0.62 nM and the “bleeding time (BT)” value ([3]; 8 mg/kg) was 525.00 ± 48.11 s.

Compound CC[C@H](C)[C@H](NC(=O)[C@@H]1CCCN1C(=O)[C@H](CCC(=O)O)NC(=O)[C@H](Cc1ccccc1)NC(=O)[C@H](CC(=O)O)NC(=O)CNC(=O)[C@H](CCC(N)=O)NC(=O)CNC(=O)CNC(=O)CNC(=O)CNC(=O)[C@@H]1CCCN1C(=O)[C@H](CCCNC(=N)N)NC(=O)[C@@H]1CCCN1C(=O)[C@H](N)Cc1ccccc1)C(=O)N1CCC[C@H]1C(=O)N[C@@H](CCC(=O)O)C(=O)N[C@@H](CC(=O)O)C(=O)N[C@@H](C)C(=O)N[C@@H](Cc1ccc(O)cc1)C(=O)N[C@@H](CC(=O)O)C(=O)N[C@@H](CCC(=O)O)C(N)=O [Peptide 1] (H-[dF]PRPGGGGQGDFEPIPEDAYDE-NH2) has a remaining at 3 h, 0.79 mM (trypsin) of 5%, a remaining at 5 h, 0.79 mM (trypsin) of 1% and a remaining at 3 h, 0.41 mM (human thrombin [1]) of 70%. It also gave a remaining at 5 h, 0.41 mM (human thrombin [1]) of 46%, an AUC(0-inf) ([2]; SD, plasma, iv, 1 umol/kg) of 0.432 µM·h and an AUC(0-t) ([2]; SD, plasma, iv, 1 umol/kg) of 0.428 µM·h. The Cmax ([2]; in vivo, iv, 1 umol/kg) was 2300 ± 400 nM, the clearance ([2]; in vivo, iv, 1 umol/kg) was 36.4 ± 3.6 mL/min/kg and the MRT last ([2]; in vivo, iv, 1 umol/kg) was 13.9 min. For the same compound, the Vd ([2]; in vivo, iv, 1 umol/kg) was 0.504 ± 0.0217 L/kg, the T1/2 [2] was 13.5 ± 2.6 min and the half-life ([2]; in vivo, iv, 1 umol/kg) was under 16 min. It also gave a Ki (rat thrombin) of 13.4 ± 0.46 nM.

Compound CCCCCCCCCCCCCCCCCC(=O)NCCCC[C@H](NC(=O)[C@@H]1CCCN1C(=O)[C@H](CCCNC(=N)N)NC(=O)[C@@H]1CCCN1C(=O)[C@H](N)Cc1ccccc1)C(=O)NCC(=O)NCC(=O)NCC(=O)N[C@@H](CCC(N)=O)C(=O)NCC(=O)N[C@@H](CC(=O)O)C(=O)N[C@@H](Cc1ccccc1)C(=O)N[C@@H](CCC(=O)O)C(=O)N1CCC[C@H]1C(=O)N[C@H](C(=O)N1CCC[C@H]1C(=O)N[C@@H](CCC(=O)O)C(=O)N[C@@H](CC(=O)O)C(=O)N[C@@H](C)C(=O)N[C@@H](Cc1ccc(O)cc1)C(=O)N[C@@H](CC(=O)O)C(=O)N[C@@H](CCC(=O)O)C(N)=O)[C@@H](C)CC [Peptide S1] (H-[dF]PRPK(Stearoyl)GGGQGDFEPIPEDAYDE-NH2; N-terminus assumed) has a Ki (rat thrombin) of 37.4 ± 1.16 nM and a Ki (human thrombin [4]) of 19.5 ± 0.4 nM.

Work on CCCCCCCCCCCCCCCCCC(=O)NCCCC[C@H](NC(=O)CNC(=O)CNC(=O)CNC(=O)[C@@H]1CCCN1C(=O)[C@H](CCCNC(=N)N)NC(=O)[C@@H]1CCCN1C(=O)[C@H](N)Cc1ccccc1)C(=O)N[C@@H](CCC(N)=O)C(=O)NCC(=O)N[C@@H](CC(=O)O)C(=O)N[C@@H](Cc1ccccc1)C(=O)N[C@@H](CCC(=O)O)C(=O)N1CCC[C@H]1C(=O)N[C@H](C(=O)N1CCC[C@H]1C(=O)N[C@@H](CCC(=O)O)C(=O)N[C@@H](CC(=O)O)C(=O)N[C@@H](C)C(=O)N[C@@H](Cc1ccc(O)cc1)C(=O)N[C@@H](CC(=O)O)C(=O)N[C@@H](CCC(=O)O)C(N)=O)[C@@H](C)CC [Peptide S3] (H-[dF]PRPGGGK(Stearoyl)QGDFEPIPEDAYDE-NH2; N-terminus assumed) yielded a Ki (rat thrombin) of 54.5 ± 0.82 nM and a Ki (human thrombin [4]) of 11 ± 0.15 nM.

For D-FPRP-GGGG-QGDFEEIPEEYL, the cleaved bond (human thrombin [5]) was “Arg-Pro” and the cleaved bond [6] was “Arg-Pro”.

In the case of D-FPRP-GGGG-QGDFEPIPEDAYDE^*, the cleaved bond (human thrombin [5]) is reported as “Arg-Pro” and the cleaved bond [6] is reported as “Arg-Pro”.

For “D-FPRP-GK(stearic acid)GG-QGDFEPIPEDAYDE^* ([dF]PRPGK(Stearoyl)GGQGDFEPIPEDAYDE-NH2)”, the cleaved bond (human thrombin [5]) was “Arg-Pro” and the cleaved bond [6] was “Arg-Pro”.

In the case of heparin [reference compound], the “bleeding time (BT)” value ([3]; 200 IU/kg) is reported as 401 ± 83.23 s.
